Experiments:
[1] = Formation of 1,5-cz-[M(Lig)] from Lig and M^III ions (metal dependent click-zip) (Charts 4, 5); type: physicochemical; settings: MOPS/NaOH buffer pH 7.0, TD728, TD827 in 50% i-PrOH; for conversion to 1,5-cz-[M(Lig)], Y^III: TD714 sum of two diastereoisomers
[2] = Formation of 1,5-cz-[Ln(Lig)] from Lig and Ln^III ions (metal dependent click-zip), MOPS/NaOH buffer pH 7.0, analytical HPLC (Charts 1, 2); settings: MOPS/NaOH buffer pH 7.0

C#Cc1cccc(CN2CCN(CCC(=O)O)CCN(Cc3cccc(CN=[N+]=[N-])n3)CCN(CCC(=O)O)CC2)n1 [TD801]
0%: conversion to 1,5-cz-[M(Lig)], Sc^III ([1]; 1 week at 80° C.) | conversion to 1,5-cz-[M(Lig)], Y^III ([1]; 1 week at 80° C.) | conversion to 1,5-cz-[M(Lig)], Sc^III ([1]; 1 hour at 80° C.) | conversion to 1,5-cz-[M(Lig)], Y^III ([1]; 1 hour at 80° C.) | conversion to 1,5-cz-[Ln(Lig)], Ce^III ([2]; after 1 week at 80° C.) | conversion to 1,5-cz-[Ln(Lig)], Ce^III ([2]; after 1 hour at 80° C.) | conversion to 1,5-cz-[Ln(Lig)], Dy^III ([2]; after 1 week at 80° C.) | conversion to 1,5-cz-[Ln(Lig)], Dy^III ([2]; after 1 hour at 80° C.) | conversion to 1,5-cz-[Ln(Lig)], Er^III ([2]; after 1 week at 80° C.) | conversion to 1,5-cz-[Ln(Lig)], Er^III ([2]; after 1 hour at 80° C.) | conversion to 1,5-cz-[Ln(Lig)], Eu^III ([2]; after 1 week at 80° C.) | conversion to 1,5-cz-[Ln(Lig)], Eu^III ([2]; after 1 hour at 80° C.) | conversion to 1,5-cz-[Ln(Lig)], Gd^III ([2]; after 1 week at 80° C.) | conversion to 1,5-cz-[Ln(Lig)], Gd^III ([2]; after 1 hour at 80° C.) | conversion to 1,5-cz-[Ln(Lig)], Ho^III ([2]; after 1 week at 80° C.) | conversion to 1,5-cz-[Ln(Lig)], Ho^III ([2]; after 1 hour at 80° C.) | conversion to 1,5-cz-[Ln(Lig)], La^III ([2]; after 1 week at 80° C.) | conversion to 1,5-cz-[Ln(Lig)], La^III ([2]; after 1 hour at 80° C.) | conversion to 1,5-cz-[Ln(Lig)], Lu^III ([2]; after 1 week at 80° C.) | conversion to 1,5-cz-[Ln(Lig)], Lu^III ([2]; after 1 hour at 80° C.) | conversion to 1,5-cz-[Ln(Lig)], Nd^III ([2]; after 1 week at 80° C.) | conversion to 1,5-cz-[Ln(Lig)], Nd^III ([2]; after 1 hour at 80° C.) | conversion to 1,5-cz-[Ln(Lig)], Pr^III ([2]; after 1 week at 80° C.) | conversion to 1,5-cz-[Ln(Lig)], Pr^III ([2]; after 1 hour at 80° C.) | conversion to 1,5-cz-[Ln(Lig)], Sm^III ([2]; after 1 week at 80° C.) | conversion to 1,5-cz-[Ln(Lig)], Sm^III ([2]; after 1 hour at 80° C.) | conversion to 1,5-cz-[Ln(Lig)], Tb^III ([2]; after 1 week at 80° C.) | conversion to 1,5-cz-[Ln(Lig)], Tb^III ([2]; after 1 hour at 80° C.) | conversion to 1,5-cz-[Ln(Lig)], Tm^III ([2]; after 1 week at 80° C.) | conversion to 1,5-cz-[Ln(Lig)], Tm^III ([2]; after 1 hour at 80° C.) | conversion to 1,5-cz-[Ln(Lig)], Yb^III ([2]; after 1 week at 80° C.) | conversion to 1,5-cz-[Ln(Lig)], Yb^III ([2]; after 1 hour at 80° C.)

Source: patent publication US20250147039A1, “Compounds for complexation of rare earth elements and/or s-, p-, d- block metals, their coordination compounds, peptide conjugates, method of their preparation and use thereof” (USTAV ORGANICKE CHEMIE A BIOCHEMIE AV CR V.V.I., priority 2021, published 2025)
